# Experimental data from PMC5218480 (PLoS ONE, 2017).
# Test system: MV-4-11 cells
# Assay: Gene expression microarray analysis (Affymetrix PrimeView) and GSEA
# Assay type: cell-based, human
# Parameters: RFU PODN (11730768_x_at) / Fold change /veh PODN (11730768_x_at) / RFU LINC00158 (11744669_a_at) / Fold change /veh LINC00158 (11744669_a_at) / RFU DUSP10 (11751237_a_at) / Fold change /veh DUSP10 (11751237_a_at) / RFU ID3 (11757404_x_at) / Fold change /veh ID3 (11757404_x_at) / RFU PLEKHG5 (11737974_s_at) / Fold change /veh PLEKHG5 (11737974_s_at) / RFU LRRC4B (11730491_at) / Fold change /veh LRRC4B (11730491_at) / RFU GIMAP4 (11747438_a_at) / Fold change /veh GIMAP4 (11747438_a_at) / RFU KRT8 (11758183_x_at) / Fold change /veh KRT8 (11758183_x_at) / RFU CNN1 (11734310_a_at) / Fold change /veh CNN1 (11734310_a_at) / RFU VPS37D (11726825_at) / Fold change /veh VPS37D (11726825_at) / RFU C10orf10 (11716522_x_at) / Fold change /veh C10orf10 (11716522_x_at) / RFU KIR2DL2 /// KIR2DL4 /// KIR2DL5A /// KIR2DL5B /// KIR2DS1 /// KIR2DS2 /// KIR2DS3 /// KIR2DS4 /// KIR3DL3 /// KIR3DL3 /// KIR3DS1 (11738374_at) / Fold change /veh KIR2DL2 /// KIR2DL4 /// KIR2DL5A /// KIR2DL5B /// KIR2DS1 /// KIR2DS2 /// KIR2DS3 /// KIR2DS4 /// KIR3DL3 /// KIR3DL3 /// KIR3DS1 (11738374_at) / RFU C1QL1 (11718748_at) / Fold change /veh C1QL1 (11718748_at) / RFU TMPRSS4 (11747572_a_at) / Fold change /veh TMPRSS4 (11747572_a_at) / RFU HAMP (11756126_x_at) / Fold change /veh HAMP (11756126_x_at) / RFU RNFT2 (11725882_a_at) / Fold change /veh RNFT2 (11725882_a_at) / RFU NR4A2 (11747474_a_at) / Fold change /veh NR4A2 (11747474_a_at) / RFU ABCC12 (11746883_a_at) / Fold change /veh ABCC12 (11746883_a_at) / RFU TMEM136 (11760407_x_at) / Fold change /veh TMEM136 (11760407_x_at) / RFU CLDN22 /// WWC2 (11732394_at) / Fold change /veh CLDN22 /// WWC2 (11732394_at) / RFU HLA-DPB1 (11760878_x_at) / Fold change /veh HLA-DPB1 (11760878_x_at) / RFU SPINT1 (11716480_a_at) / Fold change /veh SPINT1 (11716480_a_at) / RFU GAP43 (11754022_s_at) / Fold change /veh GAP43 (11754022_s_at) / RFU A4GNT (11735810_at) / Fold change /veh A4GNT (11735810_at) / RFU PRB3 (11715151_x_at) / Fold change /veh PRB3 (11715151_x_at) / RFU TUBB4B (11761932_at) / Fold change /veh TUBB4B (11761932_at) / RFU CAPN14 (11732068_a_at) / Fold change /veh CAPN14 (11732068_a_at) / RFU TMCC2 (11721928_a_at) / Fold change /veh TMCC2 (11721928_a_at) / RFU IRGQ (11745062_a_at) / Fold change /veh IRGQ (11745062_a_at) / RFU FAM174B (11720279_a_at) / Fold change /veh FAM174B (11720279_a_at) / RFU TMPRSS4 (11748680_a_at) / Fold change /veh TMPRSS4 (11748680_a_at) / RFU FAM212B (11763350_a_at) / Fold change /veh FAM212B (11763350_a_at) / RFU PLEKHG5 (11743358_a_at) / Fold change /veh PLEKHG5 (11743358_a_at) / RFU ZSCAN30 (11745921_a_at) / Fold change /veh ZSCAN30 (11745921_a_at) / RFU CMKLR1 (11741424_a_at) / Fold change /veh CMKLR1 (11741424_a_at) / RFU LOC101060620 /// MAPK8IP1 (11723275_at) / Fold change /veh LOC101060620 /// MAPK8IP1 (11723275_at) / RFU SPTSSB (11747773_x_at) / Fold change /veh SPTSSB (11747773_x_at) / RFU PRSS12 (11739890_at) / Fold change /veh PRSS12 (11739890_at) / RFU BIN1 (11741810_x_at) / Fold change /veh BIN1 (11741810_x_at) / RFU WNT11 (11732464_a_at) / Fold change /veh WNT11 (11732464_a_at) / RFU C10orf10 (11716521_a_at) / Fold change /veh C10orf10 (11716521_a_at) / RFU C5orf56 (11738089_at) / Fold change /veh C5orf56 (11738089_at) / RFU CYB561 (11721691_x_at) / Fold change /veh CYB561 (11721691_x_at) / RFU ANKRD19P (11752326_a_at) / Fold change /veh ANKRD19P (11752326_a_at) / RFU OR2T12 /// OR2T33 /// OR2T8 (11738714_s_at) / Fold change /veh OR2T12 /// OR2T33 /// OR2T8 (11738714_s_at) / RFU VCAN (11748164_a_at) / Fold change /veh VCAN (11748164_a_at) / RFU JSRP1 (11732532_at) / Fold change /veh JSRP1 (11732532_at) / RFU KRTAP10-11 (11738290_x_at) / Fold change /veh KRTAP10-11 (11738290_x_at) / RFU MYO3A (11730013_a_at) / Fold change /veh MYO3A (11730013_a_at) / RFU EBF3 (11725865_a_at) / Fold change /veh EBF3 (11725865_a_at) / RFU CAMK2N1 (11719241_x_at) / Fold change /veh CAMK2N1 (11719241_x_at) / RFU C5orf56 (11738088_a_at) / Fold change /veh C5orf56 (11738088_a_at) / RFU OLFML3 (11715873_a_at) / Fold change /veh OLFML3 (11715873_a_at) / RFU LOC100653217 /// NTM (11731650_a_at) / Fold change /veh LOC100653217 /// NTM (11731650_a_at) / RFU MAPK11 (11762145_a_at) / Fold change /veh MAPK11 (11762145_a_at) / RFU FIZ1 (11724087_x_at) / Fold change /veh FIZ1 (11724087_x_at) / RFU OASL (11726364_x_at) / Fold change /veh OASL (11726364_x_at) / RFU SOX15 (11748057_x_at) / Fold change /veh SOX15 (11748057_x_at) / RFU CD79A (11719716_a_at) / Fold change /veh CD79A (11719716_a_at) / RFU HIST1H1D (11736915_at) / Fold change /veh HIST1H1D (11736915_at) / RFU CASKIN2 (11723855_a_at) / Fold change /veh CASKIN2 (11723855_a_at) / RFU LOC730098 (11760151_x_at) / Fold change /veh LOC730098 (11760151_x_at) / RFU OR4N2 (11742367_at) / Fold change /veh OR4N2 (11742367_at) / RFU PRRT2 (11749266_a_at) / Fold change /veh PRRT2 (11749266_a_at) / RFU SNX32 (11753110_a_at) / Fold change /veh SNX32 (11753110_a_at) / RFU CDHR5 (11726645_a_at) / Fold change /veh CDHR5 (11726645_a_at) / RFU RCAN1 (11760418_a_at) / Fold change /veh RCAN1 (11760418_a_at) / RFU FAM167A (11723789_a_at) / Fold change /veh FAM167A (11723789_a_at) / RFU FAM26E (11764081_at) / Fold change /veh FAM26E (11764081_at) / RFU ISYNA1 (11749810_s_at) / Fold change /veh ISYNA1 (11749810_s_at) / RFU ACY1 (11761880_at) / Fold change /veh ACY1 (11761880_at) / RFU 11764098_at / Fold change /veh 11764098_at / RFU SAMD14 (11745864_x_at) / Fold change /veh SAMD14 (11745864_x_at) / RFU NPB (11741838_a_at) / Fold change /veh NPB (11741838_a_at) / RFU TMPRSS6 (11731388_a_at) / Fold change /veh TMPRSS6 (11731388_a_at) / RFU KRTAP10-2 (11738614_at) / Fold change /veh KRTAP10-2 (11738614_at) / RFU ARHGAP8 /// PRR5-ARHGAP8 (11727945_x_at) / Fold change /veh ARHGAP8 /// PRR5-ARHGAP8 (11727945_x_at) / RFU KRTAP5-7 /// NADSYN1 (11734609_at) / Fold change /veh KRTAP5-7 /// NADSYN1 (11734609_at) / RFU RASL12 (11751679_a_at) / Fold change /veh RASL12 (11751679_a_at) / RFU CDKN2B (11736163_a_at) / Fold change /veh CDKN2B (11736163_a_at) / RFU PRF1 (11729649_at) / Fold change /veh PRF1 (11729649_at) / RFU, ZNF638 /// ZNF638-IT1 / Fold change vs veh, ZNF638 /// ZNF638-IT1 / RFU, PANK3 / Fold change vs veh, PANK3 / RFU, SH3YL1 / Fold change vs veh, SH3YL1 / RFU, ZEB2 / Fold change vs veh, ZEB2 / RFU, NRIP1 / Fold change vs veh, NRIP1 / RFU, PTTG1IP / Fold change vs veh, PTTG1IP / RFU, CAPN2 / Fold change vs veh, CAPN2 / RFU, MED14 / Fold change vs veh, MED14 / RFU, SNORA58 / Fold change vs veh, SNORA58 / RFU, C1orf63 / Fold change vs veh, C1orf63 / RFU, LRRFIP1 / Fold change vs veh, LRRFIP1 / RFU, NDUFAF7 / Fold change vs veh, NDUFAF7 / RFU, SLC12A2 / Fold change vs veh, SLC12A2 / RFU, IBTK / Fold change vs veh, IBTK / RFU, ESF1 / Fold change vs veh, ESF1 / Fold change vs veh, TMEM50B / RFU, TAOK1 / Fold change vs veh, TAOK1 / RFU, ACBD3 / Fold change vs veh, ACBD3 / RFU, TMA16 / Fold change vs veh, TMA16 / RFU, RWDD3 / Fold change vs veh, RWDD3 / RFU, BCAT1 / Fold change vs veh, BCAT1 / RFU, EDEM3 / Fold change vs veh, EDEM3 / RFU, TMEM33 / Fold change vs veh, TMEM33 / RFU, WDR75 / Fold change vs veh, WDR75 / RFU, AHCTF1 / Fold change vs veh, AHCTF1 / RFU, TFRC / Fold change vs veh, TFRC / RFU, ZDHHC17 / Fold change vs veh, ZDHHC17 / RFU, NOM1 / Fold change vs veh, NOM1 / RFU, ARL8B / Fold change vs veh, ARL8B / RFU, ZBTB11 / Fold change vs veh, ZBTB11 / RFU, TAMM41 / Fold change vs veh, TAMM41 / RFU, KIAA1704 /// LOC100996395 / Fold change vs veh, KIAA1704 /// LOC100996395 / RFU, ING1 / Fold change vs veh, ING1 / RFU, TRMT61B / Fold change vs veh, TRMT61B / RFU, FUBP3 / Fold change vs veh, FUBP3 / RFU, TP53 / Fold change vs veh, TP53 / RFU, TNKS2 / Fold change vs veh, TNKS2 / RFU, ZFP14 / Fold change vs veh, ZFP14 / RFU, ACTR2 / Fold change vs veh, ACTR2 / RFU, PPP3R1 / Fold change vs veh, PPP3R1 / RFU, PIK3R1 / Fold change vs veh, PIK3R1 / RFU, HNRNPA1 / Fold change vs veh, HNRNPA1 / RFU, RNF170 / Fold change vs veh, RNF170 / RFU, ZNF28 / Fold change vs veh, ZNF28 / RFU, RNGTT / Fold change vs veh, RNGTT / RFU, OGT / Fold change vs veh, OGT / RFU, BRD1 / Fold change vs veh, BRD1 / RFU, MARS / Fold change vs veh, MARS / RFU, ZNF655 / Fold change vs veh, ZNF655 / RFU, FAHD1 / Fold change vs veh, FAHD1 / RFU, BDP1 / Fold change vs veh, BDP1 / RFU, LRRCC1 / Fold change vs veh, LRRCC1 / RFU, ARID1A / Fold change vs veh, ARID1A / RFU, ZNF146 / Fold change vs veh, ZNF146 / RFU, ZNF330 / Fold change vs veh, ZNF330 / RFU, GPN3 / Fold change vs veh, GPN3 / RFU, C9orf123 / Fold change vs veh, C9orf123 / RFU, N4BP2L2 / Fold change vs veh, N4BP2L2 / RFU, ARFIP1 / Fold change vs veh, ARFIP1 / RFU, FAM179B / Fold change vs veh, FAM179B / RFU, BCL10 / Fold change vs veh, BCL10 / RFU, UHRF1BP1L / Fold change vs veh, UHRF1BP1L / RFU, BET1 / Fold change vs veh, BET1 / RFU, CNOT2 / Fold change vs veh, CNOT2 / RFU, ZNF268 / Fold change vs veh, ZNF268 / Fold change vs veh, ZNF507 / RFU, DGCR2 / Fold change vs veh, DGCR2 / RFU, WDSUB1 / Fold change vs veh, WDSUB1 / Fold change vs veh, HSP90B1 /// MIR3652 / RFU, ADSS / Fold change vs veh, ADSS / RFU, GK / Fold change vs veh, GK / RFU, ZNF148 / Fold change vs veh, ZNF148 / RFU, TAF9 / Fold change vs veh, TAF9 / RFU, SLC1A5 / Fold change vs veh, SLC1A5 / RFU, SLMO2 / Fold change vs veh, SLMO2 / RFU, ABCC4 / Fold change vs veh, ABCC4 / RFU, LOC101060439 /// RAP1B / Fold change vs veh, LOC101060439 /// RAP1B / RFU, RFX7 / Fold change vs veh, RFX7 / RFU, GTPBP10 / Fold change vs veh, GTPBP10 / RFU, CNEP1R1 / Fold change vs veh, CNEP1R1 / RFU, BIVM-ERCC5 /// ERCC5 / Fold change vs veh, BIVM-ERCC5 /// ERCC5 / RFU, ILF3 / Fold change vs veh, ILF3 / RFU 11762660_at / Fold change /veh 11762660_at / RFU VCAN (11757783_s_at) / Fold change /veh VCAN (11757783_s_at) / RFU DDX43 (11728927_at) / Fold change /veh DDX43 (11728927_at) / RFU KRT8 (11758188_x_at) / Fold change /veh KRT8 (11758188_x_at) / RFU NKD1 (11759106_at) / Fold change /veh NKD1 (11759106_at) / RFU SRD5A1 (11742802_a_at) / Fold change /veh SRD5A1 (11742802_a_at) / RFU TPSAB1 /// TPSB2 (11721975_s_at) / Fold change /veh TPSAB1 /// TPSB2 (11721975_s_at) / RFU GSTM3 (11746129_a_at) / Fold change /veh GSTM3 (11746129_a_at) / RFU IL23R (11737362_x_at) / Fold change /veh IL23R (11737362_x_at) / RFU TMEM51 (11727254_a_at) / Fold change /veh TMEM51 (11727254_a_at) / RFU PIWIL2 (11732686_x_at) / Fold change /veh PIWIL2 (11732686_x_at) / RFU ORM1 (11744905_x_at) / Fold change /veh ORM1 (11744905_x_at) / RFU CCDC152 (11743942_at) / Fold change /veh CCDC152 (11743942_at) / RFU ECM1 (11717891_a_at) / Fold change /veh ECM1 (11717891_a_at) / RFU IL23R (11748794_a_at) / Fold change /veh IL23R (11748794_a_at) / RFU TNFAIP8L3 (11732012_x_at) / Fold change /veh TNFAIP8L3 (11732012_x_at) / RFU MBOAT4 (11741988_at) / Fold change /veh MBOAT4 (11741988_at) / RFU 11764193_at / Fold change /veh 11764193_at / RFU TMEM53 (11763286_at) / Fold change /veh TMEM53 (11763286_at) / RFU MAGEB2 (11727129_at) / Fold change /veh MAGEB2 (11727129_at) / RFU TMEM200A (11744735_a_at) / Fold change /veh TMEM200A (11744735_a_at) / RFU CCDC152 (11751479_a_at) / Fold change /veh CCDC152 (11751479_a_at) / RFU FAM211A (11726209_a_at) / Fold change /veh FAM211A (11726209_a_at) / RFU RGS16 (11746705_a_at) / Fold change /veh RGS16 (11746705_a_at) / RFU VCAN (11755009_s_at) / Fold change /veh VCAN (11755009_s_at) / RFU RHOB (11743442_s_at) / Fold change /veh RHOB (11743442_s_at) / RFU RGS16 (11720943_a_at) / Fold change /veh RGS16 (11720943_a_at) / RFU RGS16 (11720944_at) / Fold change /veh RGS16 (11720944_at) / RFU, VPS4B / Fold change vs veh, VPS4B / RFU, CREB1 / Fold change vs veh, CREB1 / RFU, DNAJC13 / Fold change vs veh, DNAJC13 / RFU, GNAQ / Fold change vs veh, GNAQ / RFU, CDK5R1 / Fold change vs veh, CDK5R1 / RFU, ZRANB3 / Fold change vs veh, ZRANB3 / RFU, CUL4A / Fold change vs veh, CUL4A / RFU, CCNY / Fold change vs veh, CCNY / RFU, UFL1 / Fold change vs veh, UFL1 / RFU, COG3 / Fold change vs veh, COG3 / RFU, DIAPH2 / Fold change vs veh, DIAPH2 / RFU, SKA2 / Fold change vs veh, SKA2 / RFU, AFF3 / Fold change vs veh, AFF3 / RFU, LMF1 / Fold change vs veh, LMF1 / RFU, IPO11 / Fold change vs veh, IPO11 / RFU, DFFB / Fold change vs veh, DFFB / RFU, FOXP1 / Fold change vs veh, FOXP1 / RFU, CARD8 / Fold change vs veh, CARD8 / RFU, STRN3 / Fold change vs veh, STRN3 / RFU, ADK / Fold change vs veh, ADK / RFU, RASSF2 / Fold change vs veh, RASSF2 / RFU, WIPF1 / Fold change vs veh, WIPF1 / RFU, LARP1B / Fold change vs veh, LARP1B / RFU, RASA1 / Fold change vs veh, RASA1 / RFU, RB1 / Fold change vs veh, RB1 / RFU, PPFIA1 / Fold change vs veh, PPFIA1 / RFU, MAT2A / Fold change vs veh, MAT2A / RFU, CCT5 / Fold change vs veh, CCT5 / RFU, WDR92 / Fold change vs veh, WDR92 / RFU, CUX1 / Fold change vs veh, CUX1 / RFU, TTC7A / Fold change vs veh, TTC7A / RFU, TMEM135 / Fold change vs veh, TMEM135 / RFU, DEPTOR / Fold change vs veh, DEPTOR / RFU, CPM / Fold change vs veh, CPM / RFU, DNAJB6 / Fold change vs veh, DNAJB6 / RFU, CACNA2D3 / Fold change vs veh, CACNA2D3 / RFU, DTX4 / Fold change vs veh, DTX4 / RFU, TFCP2 / Fold change vs veh, TFCP2 / RFU, GMCL1 /// GMCL1P1 / Fold change vs veh, GMCL1 /// GMCL1P1 / RFU, AEBP2 / Fold change vs veh, AEBP2 / RFU, SNHG1 /// SNORD22 /// SNORD25 /// SNORD26 /// SNORD27 /// SNORD28 /// SNORD29 /// SNORD31 / Fold change vs veh, SNHG1 /// SNORD22 /// SNORD25 /// SNORD26 /// SNORD27 /// SNORD28 /// SNORD29 /// SNORD31 / Fold change (Aza/veh), C12orf56 (ProbeSet 11735607_a_at) / Fold change (ACY-1035/veh), C12orf56 (ProbeSet 11735607_a_at) / Fold change (Aza/veh), FGFR1OP (ProbeSet 11751329_s_at) / Fold change (ACY-1035/veh), FGFR1OP (ProbeSet 11751329_s_at) / Fold change (Aza/veh), VPS36 (ProbeSet 11739960_a_at) / Fold change (ACY-1035/veh), VPS36 (ProbeSet 11739960_a_at) / RFU SYPL1 (11715823_x_at) / Fold change /veh SYPL1 (11715823_x_at) / RFU IGFBP7 (11715501_s_at) / Fold change /veh IGFBP7 (11715501_s_at) / RFU REEP3 (11722064_at) / Fold change /veh REEP3 (11722064_at) / RFU IGLL1 (11728026_x_at) / Fold change /veh IGLL1 (11728026_x_at): dose or concentration left out as unconfirmed
# Conditions: ProbeSet 11749551_a_at; LIST B
smiles,measurement,value
Nc1ccc(-c2cccs2)cc1NC(=O)c1ccc2c(c1)cc(C1CC1)n2CCN1CCOCC1 [ACY-1035],"Fold change vs veh, RNGTT",0.96
